According to PubChem BioAssay AID2060509 (Molecular Pharmacology Branch, DTP, NCI, 2025):
Values joined by “and” are separate entries in the source; they are usually repeats but may differ in a detail not shown here. Equal entries are not always repeated.

Test system: 485176-168-R4-J1-PDC spheroids with HUVEC/MSC, viability
Experiment: Anticancer human tumor 485176-168-R4-J1-PDC patient-derived pancreatic adenocarcinoma cell line growth inhibition [GQUAD]
Settings: for viability, T/C: stronger effect = lower value
From the text: DNA G-quadruplex Stabilizer Agents in Combinations in Complex Spheroids
A high-throughput screen of multi-cell type tumor spheroids was designed to identify active combinations of DNA G-quadruplex stabilizer agents and targeted small molecules. Complex spheroids include a stromal component modeled by human endothelial cells (HUVEC) and fibroblasts modeled by human mesenchymal stem cells (MSCs). The concentration ranges selected for each drug and investigational agent were based upon clinically achievable concentrations if the clinical Cmax of the agent was known.
Compounds. The drugs and investigational agents: pidnarulex (CX-5461; NSC782164), APTO-253 (NSC789042), BRACO-19 (NSC847499), peposertib (NSC802822), ceralasertib (NSC780249), elimusertib (NSC800525), camonsertib (NSC841442), AZD-1390 (NSC803789), olaparib (NSC753686), talazoparib (NSC767125), ART-558 (NSC835418), sotorasib (NSC818433), MRTX-1133 (NSC836407), SN-38 (NSC673596), topotecan (NSC609699), etoposide (NSC141540), doxorubicin (NSC123127), gemcitabine (NSC613327), 5-fluorouracil (NSC19893), paclitaxel (NSC125973), vemurafenib (NSC761431), panobinostat (NSC761190), R-306465 (JNJ-16241199; NSC773264), adavosertib (NSC754352), TP-3654 (NSC805149), carboplatin (NSC241240), KSQ-4279 (NSC840948), and staurosporine (NSC755774) were obtained from the National Cancer Institute (NCI) Developmental Therapeutics Program Chemical Repository (34). The FDA-approved anticancer drug set is available from the NCI Developmental Therapeutics Program. […] The stock solutions were prepared in dimethyl sulfoxide (DMSO, Sigma-Aldrich, St. Louis, MO, cat. D2650) at 800-fold the tested concentration and stored at -70 degrees C prior to their use. All drugs and investigational agents were tested over a range starting from a high concentration at or near the clinical Cmax and decreasing in half-log increments. If the clinical Cmax for an agent had not been determined, the highest concentration tested was 10 microM.
2.3 Cell Culture. All cells were maintained in an incubator at 37 degrees C and 5% CO2 with 95% humidity. The PDC lines were cultured according to standard operating procedures established by the NCI PDMR. All PDCs were thawed and cultured in Matrigel-coated flasks prepared with a working solution of 1X Ham's F-12 nutrient mix, without supplementation (Invitrogen, cat. 11765054), 100 U/mL penicillin-streptomycin (Invitrogen, cat. 15140122), and 2.5% Matrigel (Corning Inc., cat. 354248) for the first three passages. The 857933-349-R-J2-PDC line was cultured in 6C/Colon 1B media, which includes advanced DMEM/F-12 (Thermo Fisher Scientific, cat. 12634028), 10 mM HEPES (Thermo Fisher Scientific, cat. 15630080), 1X GlutaMAX supplement (Thermo Fisher Scientific, cat. 35050061), 0.1 mg/mL primocin (InvivoGen, cat. ant-pm-2), 10% defined fetal bovine serum, heat inactivated (HyClone Laboratories Inc., cat. SH30070.03HI), 50% L-WRN conditioned media (ATCC, cat. CRL-3276), 1.25 mM N-Acetyl-L-cysteine (Sigma-Aldrich, cat. A9165), 10 mM nicotinamide (Sigma-Aldrich, cat. N0636), 1X B-27 supplement (Thermo Fisher Scientific, cat. 17504044), 1X N-2 supplement (Thermo Fisher Scientific, cat. 17502048), 10 microM Y-27632 dihydrochloride (Tocris Bioscience, cat. 1254), and 50 ng/mL human EGF recombinant protein (Thermo Fisher Scientific, cat. PHG0311). The 485176-168-R4-J1-PDC line was cultured in Panc media, which includes all 6C/Colon 1B media components plus 100 ng/mL human FGF-10 (Thermo Fisher Scientific, cat. 100-26), 500 nM SB-431542 (Selleckchem, cat. S1067), and gastrin (Tocris, cat. 3006).
[…]
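Also: spheroids exposed to compounds for seven days before readout.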
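For viability, T/C in this document: percent viability relative to DMSO vehicle control wells as 100%.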

Compound | viability, T/C (compound 0.0316 µM) | viability, T/C (compound 0.1 µM) | viability, T/C (compound 0.316 µM) | viability, T/C (compound 1 µM) | viability, T/C (compound 3.16 µM) | viability, T/C (compound 10 µM) | IC50 (curve of compound) | viability, T/C (compound 0.000999 µM) | viability, T/C (compound 0.00316 µM) | viability, T/C (compound 0.00999 µM) | viability, T/C (compound 0.0999 µM) | IC50 (compound alone, run of 03/26/2024) [nM]
C#Cc1c(F)ccc2cc(O)cc(-c3ncc4c(N5CC6CCC(C5)N6)nc(OCC56CCCN5CC(F)C6)nc4c3F)c12 (centres undefined) | 95.2% and 109% and 105% | 89% and 86.3% and 108% | 92.7% and 88.4% and 95.7% | 89.8% and 104% and 109% | 104% and 96.4% and 97.2% | 95.4% and 93.5% and 104% | > 10000 nM | – | – | – | – | –
C=CC(=O)N1CCN(c2nc(=O)n(-c3c(C)ccnc3C(C)C)c3nc(-c4c(O)cccc4F)c(F)cc23)C(C)C1 (centres undefined) | 94.5% and 108% and 99.3% | 80.1% and 83.2% and 93.6% | 115% and 110% and 111% | 91.1% and 122% and 103% | 113% and 109% and 111% | 96.8% and 114% and 107% | > 10000 nM | – | – | – | – | –
C=CCn1c(=O)c2cnc(Nc3ccc(N4CCN(C)CC4)cc3)nc2n1-c1cccc(C(C)(C)O)n1 | 101% and 96.5% and 125% | 85.2% and 103% and 79.7% | 58% and 60.3% and 58.8% | 20.7% and 23% and 14.2% | 7.67% and 7.8% and 5.95% | 5.42% and 4.01% and 4.35% | 387 nM and 453 nM and 300 nM | – | – | – | – | –
CC(=O)O[C@H]1C(=O)[C@@]2(C)[C@H]([C@H](OC(=O)c3ccccc3)[C@]3(O)C[C@H](OC(=O)[C@H](O)[C@@H](NC(=O)c4ccccc4)c4ccccc4)C(C)=C1C3(C)C)[C@]1(OC(C)=O)CO[C@@H]1C[C@@H]2O | 33.5% and 33.7% and 29.3% | 10.2% and 14.9% and 9.73% | 12.3% and 11.3% and 10.6% | 10.9% and 13.4% and 9.36% | 11% and 13.5% and 10.1% | 13.7% and 11.4% and 9.37% | < 31.6 nM | – | – | – | – | –
CC(C)(O)C1CCC(Nc2ccc3ncc(-c4cccc(C(F)(F)F)c4)n3n2)CC1 (centres undefined) | 95.2% and 95.5% and 94.6% | 110% and 90.6% and 87.2% | 83.9% and 93.9% and 92.1% | 84.3% and 91.6% and 77.9% | 53.8% and 62.9% and 60.7% | 57.8% and 57.9% and 56.4% | > 10000 nM | – | – | – | – | –
CC(C)n1c(=O)n(C)c2cnc3cc(F)c(-c4ccc(OCCCN5CCCCC5)nc4)cc3c21 | 91.6% and 91.4% and 87.6% | 84.9% and 80% and 85% | 92.1% and 95.7% and 88.2% | 91.2% and 77.1% and 86.4% | 82.5% and 93.8% and 83.5% | 78.8% and 75.8% and 72.5% | > 10000 nM | – | – | – | – | –
CC1COCCN1c1cc(-c2ccnn2C)c2ccnc(-c3ccn[nH]3)c2n1 (centres undefined) | 76.2% and 71.6% and 87.6% | 39.2% and 47.5% and 37.8% | 18.1% and 14.2% and 15.9% | 10.4% and 10.2% and 9.3% | 11.3% and 9.69% and 10% | 11.9% and 12.4% and 10.7% | 71.6 nM and 88.8 nM and 75.5 nM | – | – | – | – | –
CC1COCCN1c1cc(C2(O)CC3CCC(C2)O3)c2cnn(-c3ccn[nH]3)c2n1 (centres undefined) | 68% and 73.8% and 81.9% | 32.8% and 40.7% and 53.4% | 11.7% and 19.7% and 16.1% | 8.14% and 9.02% and 10.2% | 8.91% and 11.7% and 10.2% | 9.41% and 8.55% and 9.34% | 57 nM and 72.7 nM and 111 nM | – | – | – | – | –
CC1COCCN1c1cc(C2(S(C)(=N)=O)CC2)nc(-c2ccnc3[nH]ccc23)n1 (centres undefined) | 91.4% and 102% and 101% | 98.7% and 102% and 97.1% | 93.1% and 96.5% and 101% | 56% and 70.9% and 59.4% | 36.2% and 34.4% and 72.4% | 14.5% and 16.4% and 12.8% | 1550 nM and 1930 nM and 3980 nM | – | – | – | – | –
CCCS(=O)(=O)Nc1ccc(F)c(C(=O)c2c[nH]c3ncc(-c4ccc(Cl)cc4)cc23)c1F | 84.4% and 98.5% and 96.2% | 94.7% and 85.4% and 64.8% | 89.7% and 87.6% and 85% | 82% and 83.2% and 77% | 82.2% and 75.4% and 73.2% | 71.2% and 70.3% and 66.2% | > 10000 nM | – | – | – | – | –
CC[C@@]1(O)C(=O)OCc2c1cc1n(c2=O)Cc2cc3c(CN(C)C)c(O)ccc3nc2-1 | 64.6% and 100% and 90.4% | – | 31.3% and 35.5% (2×) | – | – | – | 102 nM and 185 nM and 154 nM | 103% and 99% and 108% | 99.1% and 96.4% and 81% | 89.2% and 94.7% and 93% | 54.2% and 66.9% and 58.7% | –
CCc1c2c(nc3ccc(O)cc13)-c1cc3c(c(=O)n1C2)COC(=O)[C@]3(O)CC | 25.5% and 22.1% and 19.9% | – | 5.64% and 4.31% and 3.94% | – | – | – | 3.08 nM and 6.61 nM and 4.61 nM | 70.1% and 80.1% and 81.3% | 44.8% and 56.4% and 56% | 36% and 50.5% and 37.6% | 14.2% and 11.4% and 13.2% | –
CN(C)c1ccc(Nc2c3ccc(NC(=O)CCN4CCCC4)cc3nc3cc(NC(=O)CCN4CCCC4)ccc23)cc1 | 101% [middle of 12 runs] | – | 102% [middle of 12 runs] | – | 93.2% [middle of 12 runs] | 84.2% [middle of 12 runs] | – | – | – | – | – | > 10000
